Measurements published in patent US20240261292A1, “COMBINATION THERAPIES” (Janssen Pharmaceutica NV, priority 2021, published 2024).
Counter-ions that a name gives are not always drawn.

Legend:
[1] = molecular target: hERG (Homo sapiens (Human), UniProt Q12809); experiment: hERG current in hERG-transfected HEK293 cells (Protocol 2, SyncroPatch 384PE); type: cell-based; conditions: Protocol 2, HEK293 cells
Experimental: The compound, vehicle control and positive control were tested on hERG-transfected HEK293 cells. A human embryonic kidney cell line (HEK293) with a stable transfection of hERG (Zhou Z et al. Biophysical Journal 1998. 74, 230-241; McDonald T. V. et al, Nature 1997. 388, 289-292) was used (University of Wisconsin, Madison, USA). The cells were kept in culture in MEM (Minimum Essential Medium, Gibco) which was supplemented with (amounts indicated added to 500 ml MEM): 5 ml L-Glutamine-Penicillin-Streptomycin (Sigma), 50 ml Fetal Bovine serum (Bio-Whittaker), 5 ml Non-essential Amino Acids 100× (Gibco), 5 mil sodium pyruvate 100 mM (Gibco) and 4 ml geneticin 50 mg/ml (Gibco) using T175 flasks.
Cells were harvested as described below using Accumax™ (Sigma) as the dissociating reagent. Cells were then resuspended in a mixture of 33% DMEM/F12 (Dulbecco's Modified Eagle Medium/Nutrient Mixture F-12—Sigma) media/67% extracellular physiological solution. […]
The whole cell patch clamp technique on transfected cells allows the study of ion-channels with no—or limited interference from other ion-channels. […] All cells were recorded in the whole cell mode of the patch clamp technique. […]
After the whole cell mode was achieved, test pulses were given for ˜10 minutes to quantify the hERG current in control conditions. […]

[2] = Metabolic stability in human liver microsomes; type: in vitro ADME; conditions: pH 7.4, 0.5 mg/mL microsomes protein, read-out: Human LM Clint
Experimental: 4) Metabolic Stability in Human/Mouse Liver Microsomes
The objective of this study is to measure in vitro metabolic stability of test compound(s) in human and mouse liver microsomes and provide quantitative information on the rate of metabolic turnover (i.e., determination of the apparent intrinsic clearance of test).
Test items were prepared at a stock concentration of 10 mM in DMSO. For determination of metabolic turnover, a final working solution was prepared by adding 2 μL of 10 mM DMSO stock solution for test compound or positive control compounds to 198 μL of acetonitrile (100 μM final concentration).
Incubations were performed as follows: First, liver microsomes were thawed on ice and a master solution containing liver microsomes in 100 mM PBS (phosphate-buffered saline) at pH 7.4 is prepared. Next, the liver microsomes solution was added to the incubation plates and 10 mM NADPH (Nicotinamide-adenine dinucleotide phosphate) was added (MW: 833.4 g/mol; Roche Diagnostics GmbH1, Germany. Dissolved in phosphate buffer (100 mmol/L, pH 7.4)). […]
All calculations were carried out using Microsoft Excel. The slope value, k, was determined by linear regression of the natural logarithm of the remaining percentage of the parent drug vs. incubation time curve.
The in vitro half-life (in vitro t1/2) was determined from the slope value: […]

[3] = Mouse PK (in vivo T1/2 and oral bioavailability); conditions: fasted male CD-1 mice, single IV 0.5 or 1.0 mg/kg; formulating agent: A HP-β-CD, A3 Pyrogen free water
Experimental: 3) Mouse PK (In Vivo T1/2 and Oral Bioavailability)
In vivo pharmacokinetics (PK) were assessed in fasted male CD-1 mice (age 6-8 weeks) following a single intravenous (IV, 0.5 or 1.0 mg/kg administered at 2.5 ml/kg) or oral (PO, 5 mg/kg administered at 10 ml solution/kg) dose of test article formulated in a 20% (w:vol) HP-β-CD solution or in Pyrogen free water.
Plasma and/or whole blood samples were collected from the dorsal metatarsal vein at desired timepoints via serial capillary microsampling (approx. 0.03 mL) using EDTA as an anticoagulant. Concentrations of compound in the plasma and blood samples were analyzed using a qualified LC-MS/MS method. In silico analysis of main pharmacokinetic parameters was performed using WinNonlin (Phoenix™, version 6.1) or similar software.)

Sequence of hERG (Q12809 whole entry): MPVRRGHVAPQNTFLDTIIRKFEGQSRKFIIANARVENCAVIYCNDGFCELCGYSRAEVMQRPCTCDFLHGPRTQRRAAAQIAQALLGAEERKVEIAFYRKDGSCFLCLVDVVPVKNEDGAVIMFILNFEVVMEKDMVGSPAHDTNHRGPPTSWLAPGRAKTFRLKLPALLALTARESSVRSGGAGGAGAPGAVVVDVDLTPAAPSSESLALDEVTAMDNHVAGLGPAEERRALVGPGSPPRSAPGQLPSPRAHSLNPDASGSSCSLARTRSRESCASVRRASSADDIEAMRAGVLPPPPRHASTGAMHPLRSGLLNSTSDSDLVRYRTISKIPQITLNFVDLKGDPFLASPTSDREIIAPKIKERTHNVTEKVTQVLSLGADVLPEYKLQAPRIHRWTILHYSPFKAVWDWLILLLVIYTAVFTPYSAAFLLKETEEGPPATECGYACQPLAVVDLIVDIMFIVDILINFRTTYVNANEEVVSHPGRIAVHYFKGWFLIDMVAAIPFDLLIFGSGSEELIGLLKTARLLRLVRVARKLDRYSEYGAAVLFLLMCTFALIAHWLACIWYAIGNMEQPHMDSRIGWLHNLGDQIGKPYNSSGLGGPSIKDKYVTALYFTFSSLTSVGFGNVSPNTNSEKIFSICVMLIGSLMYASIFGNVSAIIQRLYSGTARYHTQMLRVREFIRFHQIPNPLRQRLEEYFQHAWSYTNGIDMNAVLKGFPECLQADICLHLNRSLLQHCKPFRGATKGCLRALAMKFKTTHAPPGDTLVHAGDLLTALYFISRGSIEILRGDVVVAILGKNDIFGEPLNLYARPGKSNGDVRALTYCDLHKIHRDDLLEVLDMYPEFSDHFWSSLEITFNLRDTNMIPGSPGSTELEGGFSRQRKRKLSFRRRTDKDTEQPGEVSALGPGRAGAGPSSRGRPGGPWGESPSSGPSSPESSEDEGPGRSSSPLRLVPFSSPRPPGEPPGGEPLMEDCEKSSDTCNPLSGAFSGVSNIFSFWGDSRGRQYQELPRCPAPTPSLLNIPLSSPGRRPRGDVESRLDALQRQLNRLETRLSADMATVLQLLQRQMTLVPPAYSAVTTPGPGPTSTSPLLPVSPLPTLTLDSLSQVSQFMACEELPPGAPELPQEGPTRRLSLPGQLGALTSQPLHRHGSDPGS

Row | Compound | IC50 [1] [µM] | microsomal CLint at 1 μM [2] [µL/min/mg] | In vivo T1/2 (IV) [3] [h]
1 | CCN(C(=O)c1cc(F)ccc1Oc1nncnc1N1CCC2(C1)CN([C@H](CCCNCCOC)C(C)C)C2)C(C)C [Compound 11, (R)-N-ethyl-5-fluoro-N-isopropyl-2-((5-(2-(6-((2-methoxyethyl)amino)-2-methylhexan-3-yl)-2,6-diazaspiro[3.4]octan-6-yl)-1,2,4-triazin-6-yl)oxy)benzamide] | > 30.2 | 14 | –
2 | CCN(C(=O)c1cc(F)ccc1Oc1nncnc1N1CCC2(C1)CN([C@H](CCCN(C)CCOC)C(C)C)C2)C(C)C [Compound A3, (R)-N-ethyl-5-fluoro-N-isopropyl-2-((5-(2-(6-((2-methoxyethyl) (methyl)amino)-2-methylhexan-3-yl)-2,6-diazaspiro[3.4]octan-6-yl)-1,2,4-triazin-6-yl)oxy) benzamide oxalate] | – | – | 9.0
